From US12171755B2, “PAPD5 inhibitors and methods of use thereof” (Children's Medical Center Corporation, priority 2017, dated 2024)

Target: T1, PAPD5 (Homo sapiens, UniProt Q8NDF8)
T1 construct: made in house
Experiment: High-throughput luminescence (KinaseGlo) RNA polyadenylation assay, ATP utilization by recombinant PAPD5
Type: biochemical
Conditions: for Fold-change determined at compound concentration 33 μM / Fold-change determined at compound concentration 100 μM / Fold-change determined at compound concentration 10 μM: Table 4 (entries of Table 5), ratio of luminescence with inhibitor to DMSO; for Fold-change determined at compound concentration 33 μM: 33 μM compound; for Fold-change determined at compound concentration 100 μM: higher = higher inhibition; for Fold-change determined at compound concentration 10 μM: 10 μM compound
Procedure: Optimal conditions for an in vitro RNA polyadenylation assay using recombinant PAPD5, ATP and an oligonucleotide substrate were identified. The HTS assay involved ATP utilization by PAPD5, which reads out as a decreased luminescence signal produced by luciferase (KinaseGlo, Promega, Madison, WI).
100 nl of compound dissolved in DMSO was transferred to each well of the assay plate via pin transfer. For negative control wells, DMSO alone was added. Plates were gently vortexed for 5 seconds, then incubated for 2 hours at room temperature.
After 2 hours, 5 ul of luciferase (Promega KinaseGlo, Madison, WI) was added using a MultiDrop Combi (Thermo Fisher Scientific, Waltham, MA). The mixture was gently vortexed for 5 seconds and incubated for 10 minutes at room temperature. Plates were spun for 1 minute prior to luminescence measurements. Luminescent measurements were quantitated using a PerkinElmer EnVision™ plate reader.
˜100,000 compounds from various libraries at the ICCB-Longwood were screened in this manner in duplicate.
The fold change was the ratio of luminescence from a sample with inhibitor compared to that with DMSO. Thus, a higher number indicates higher inhibition.

T1 sequence (Q8NDF8 68-698 isoform Q8NDF8-5): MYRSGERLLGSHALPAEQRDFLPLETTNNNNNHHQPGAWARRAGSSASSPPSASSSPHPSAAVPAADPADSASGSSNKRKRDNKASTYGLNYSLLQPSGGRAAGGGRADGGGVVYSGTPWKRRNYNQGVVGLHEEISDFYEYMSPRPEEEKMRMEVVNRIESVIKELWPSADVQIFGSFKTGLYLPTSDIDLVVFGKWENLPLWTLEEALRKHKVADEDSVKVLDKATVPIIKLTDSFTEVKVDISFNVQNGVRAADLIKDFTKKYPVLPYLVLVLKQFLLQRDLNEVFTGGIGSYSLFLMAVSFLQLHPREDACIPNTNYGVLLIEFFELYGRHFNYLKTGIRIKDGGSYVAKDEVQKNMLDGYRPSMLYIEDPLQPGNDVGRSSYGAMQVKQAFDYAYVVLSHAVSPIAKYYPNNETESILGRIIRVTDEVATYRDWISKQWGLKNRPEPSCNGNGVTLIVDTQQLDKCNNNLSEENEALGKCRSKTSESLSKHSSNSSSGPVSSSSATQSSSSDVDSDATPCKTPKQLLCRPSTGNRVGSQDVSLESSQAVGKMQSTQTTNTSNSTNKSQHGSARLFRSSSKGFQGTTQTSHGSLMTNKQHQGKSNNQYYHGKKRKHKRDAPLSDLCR

| Fold-change determined at compound concentration 33 μM | Fold-change determined at compound concentration 100 μM (100 μM compound) | fold change at 100 μM concentration in the assay (100 μM compound) | Fold-change determined at compound concentration 10 μM | Compound |
| --- | --- | --- | --- | --- |
| 1.162 | 1.389 | – | – | 3-{7-Oxo-2.8.10- triazatricyclo[7.4.0.02,6]trideca- 1(13),3,5,9,11-pentaen-8-yl}propionic acid [Entry 68] |
| 1.079 | 1.328 | – | – | CC(C)C(CO)Nc1nc(Nc2ccc(C(=O)O)c(Cl)c2)c2ncn(C(C)C)c2n1 (stereo in doubt) [Entry 46, 2-chloro-4-[[2-[[(2R)-1-hydroxy-3-methylbutan-2-yl]amino]-9-propan-2-ylpurin-6-yl]amino]benzoic acid] |
| – | – | 3.9 | – | O=C(O)C1CC(=O)N(Cc2ccc3c(c2)OCO3)C1 (stereo not shown) [1-(1,3-benzodioxol-5-ylmethyl)-5-oxopyrrolidine-3-carboxylic acid] |
| 1.073 | 1.22 | – | – | Cc1csc(-c2cc(S(=O)(=O)Nc3cc(C)nc4ccccc34)c(C)s2)n1 [Entry 29, 2-methyl-N-(2-methylquinolin-4-yl)-5-(4-methyl-1,3-thiazol-2-yl)thiophene-3-sulfonamide] |
| 1.313 | 1.944 | – | – | Nc1c2ccccc2nc2ccccc12 [Entry 30, acridin-9-amine] |
| 1.304 | 1.895 | – | – | CCCCN(C)c1cc(C(=O)O)c2cc(NC(=O)c3ccccc3OC)ccc2n1 [Entry 31, 2-[butyl(methyl)amino]-6-[(2-methoxybenzoyl)amino]quinoline-4-carboxylic acid] |
| 1.114 | 1.236 | – | – | O=C(O)c1cccc(Nc2ncnc3ccc(Br)cc23)c1 [Entry 32, 3-[(6-bromoquinazolin-4-yl)amino]benzoic acid] |
| 1.175 | 1.505 | – | – | Nc1nc(N2CCCC2)nc2ccccc12 [Entry 33, 2-(1-pyrrolidinyl)-4-quinazolinamine] |
| 1.098 | 1.212 | – | – | OCCN(CCO)c1nc(N2CCCCC2)c2nc(N(CCO)CCO)nc(N3CCCCC3)c2n1 [Entry 34, 2,2′,2″,2″′-((4,8-Di(piperidin-1-yl)pyrimido[5,4-d]pyrimidine-2,6-diyl)bis(azanetriyl))tetraethanol] |
| 1.04 | 1.287 | – | – | O=C(O)C1CCCN(c2ncnc3c2oc2ccccc23)C1 (stereo not shown) [Entry 35, 1-[1]benzofuro[3,2-d]pyrimidin-4-ylpiperidine-3-carboxylic acid] |
| 1.096 | 1.239 | – | – | O=C(NCc1ccncc1)C1CCCN(c2ncnc3c2oc2ccccc23)C1 (stereo not shown) [Entry 36, 1-([1]benzofuro[3,2-d]pyrimidin-4-yl)-N-(pyridin-4-ylmethyl)piperidine-3-carboxamide] |
| 1.077 | 1.218 | – | – | O=C(NCc1ccccn1)C1CCCN(c2ncnc3c2oc2ccccc23)C1 (stereo not shown) [Entry 37, 1-([1]benzofuro[3,2-d]pyrimidin-4-yl)-N-(pyridin-2-ylmethyl)piperidine-3-carboxamide] |
| 1.207 | 1.631 | – | – | Cc1ccc(-n2c(N3CCCC(C(=O)O)C3)nc3ccsc3c2=O)cc1 (stereo not shown) [Entry 38, 1-[3-(4-methylphenyl)-4-oxo-3,4-dihydrothieno[3,2-d]pyrimidin-2-yl]piperidine-3-carboxylic acid] |
| 1.19 | 1.527 | – | – | O=C(O)C1CCCN(c2nc3c(-c4ccccc4)csc3c(=O)[nH]2)C1 (stereo not shown) [Entry 39, 1-(4-oxo-7-phenyl-3,4-dihydrothieno[3,2-d]pyrimidin-2-yl)piperidine-3-carboxylic acid] |
| 1.589 | 2.956 | – | – | COc1ccc(Nc2ncnc3sc(C(=O)O)c(C)c23)cc1OC [Entry 40, 4-(3,4-dimethoxyanilino)-5-methylthieno[2,3-d]pyrimidine-6-carboxylic acid] |
| 1.621 | 2.279 | – | 1.249 | c1cc(CNc2ncnc3sc4c(c23)CCCC4)ccn1 [Entry 41, N-(pyridin-4-ylmethyl)-5,6,7,8-tetrahydro[1]benzothieno[2,3-d]pyrimidin-4-amine] |
| 1.905 | 2.528 | – | 1.382 | COc1ccc(-c2nc(N3CCOCC3)c3sc(CN(C)c4ncc(C(=O)NO)cn4)cc3n2)cn1 [Entry 42, N-hydroxy-2-[[2-(6-methoxypyridin-3-yl)-4-morpholin-4-ylthieno[3,2-d]pyrimidin-6-yl]methyl-methylamino]pyrimidine-5-carboxamide] |
| 1.648 | 2.294 | – | 1.292 | NC(=O)C1CCN(c2ncnc3sc4c(c23)CCCC4)CC1 [Entry 43, 1-(5,6,7,8-tetrahydro[1]benzothieno[2,3-d]pyrimidin-4-yl)piperidine-4-carboxamide] |
| 1.273 | 1.651 | – | – | NC(=O)C1CCN(c2nc3c(S(=O)(=O)c4ccccc4)nnn3c3ccsc23)CC1 [Entry 44, 1-(3-(phenylsulfonyl)thieno[2,3-e][1,2,3]triazol[1,5-a]pyrimidin-5-yl)piperidine-4-carboxamide] |
| 1.429 | 1.936 | – | – | c1cc(CNc2nc(C3CC3)nc3c2CCC3)ccn1 [Entry 45, N-(2-cyclopropyl-6,7-dihydro-5H-cyclopenta[d]pyrimidin-4-yl)-N-(4-pyridylmethyl)amine] |
| 1.095 | 1.393 | – | – | CC(C)n1cnc2c(Nc3ccc(C(=O)O)cc3)nc(Cl)nc21 [Entry 47, 4-[(2-chloro-9-propan-2-ylpurin-6-yl)amino]benzoic acid] |
| 1.105 | 1.318 | – | – | O=S(=O)(Nc1ccc2nncn2n1)c1ccc(Br)cc1 [Entry 49, 4-bromo-N-([1,2,4]triazolo[4,3-b]pyridazin-6-yl)benzenesulfonamide] |
| 1.242 | 1.825 | – | – | O=S(=O)(Nc1ccc2nnc(-c3ccccc3)n2n1)c1ccc(Cl)cc1 [Entry 51, 4-chloro-N-(3-phenyl-[1,2,4]triazolo[4,3-b]pyridazin-6-yl)benzenesulfonamide] |
| 1.133 | 1.275 | – | – | Clc1ccc(Nc2nnc(Cc3ccncc3)c3ccccc23)cc1 [Entry 52, N-(4-chlorophenyl)-4-(pyridin-4-ylmethyl)phthalazin-1-amine] |
| 1.308 | 1.807 | – | – | CCOC(=O)C1CCN(c2nnc(Cc3ccncc3)c3ccccc23)CC1 [Entry 53, Ethyl 1-[4-(pyridin-4-ylmethyl)phthalazin-1-yl]piperidine-4-carboxylate] |
| 1.324 | 1.562 | – | – | Cc1ccc(-c2nnc(Nc3ccc(OCC(N)=O)cc3)c3ccccc23)cc1S(=O)(=O)N(C)C [Entry 54, 2-[4-({4-[3-(dimethylsulfamoyl)-4-methylphenyl]phthalazin-1-yl}amino)phenoxy]acetamide] |
| 1.262 | 1.592 | – | – | c1ccc(CC2CCN(c3nnc(Cc4ccncc4)c4ccccc34)CC2)cc1 [Entry 55, 1-(4-benzylpiperidin-1-yl)-4-(pyridin-4-ylmethyl)phthalazine] |
| 1.226 | 1.487 | – | – | Cc1ccc(-c2nnc(Nc3ccc(OCC(N)=O)cc3)c3ccccc23)cc1S(=O)(=O)NCC1CCCO1 (stereo not shown) [Entry 56, 2-[4-[[4-[4-methyl-3-(oxolan-2-ylmethylsulfamoyl)phenyl]phthalazin-1-yl]amino]phenoxy]acetamide] |
| 1.142 | 1.518 | – | – | Cc1ccc(CNC(=O)Nc2cn(CC(C)C)c(=O)c3ccccc23)cc1 [Entry 57, 1-[(4-methylphenyl)methyl]-3-[2-(2-methylpropyl)-1-oxoisoquinolin-4-yl]urea] |
| 1.099 | 1.574 | – | – | CC(C)Cn1cc(NC(=O)NCc2ccccc2)c2ccccc2c1=O [Entry 57a, 1-benzyl-3-[2-(2-methylpropyl)-1-oxoisoquinolin-4-yl]urea] |

| Compound | Fold-change determined at compound concentration 33 μM | Fold-change determined at compound concentration 100 μM (100 μM compound) | fold change at 100 μM concentration in the assay (100 μM compound) | Fold-change determined at compound concentration 10 μM |
| --- | --- | --- | --- | --- |
| CC(C)c1nnc2ccc(N3CCN(C)CC3)nn12 [Entry 50, 3-isopropyl-6-(4-methylpiperazino)[1,2,4]triazolo[4,3-b]pyridazine] | 1.336 | 2.083 | – | – |
